Experimental data: US12172959B2, “Mono- or di-substituted indole derivatives as dengue viral replication inhibitors” (priority 2015, dated 2024)

Columns and labels:
DENV-3 strain H87 = test: Tetravalent RT-qPCR assay Protocol A, serotype 3; format: cell-based; details: Dengue virus, DENV3, 72 h, RT-qPCR serotype 3 H87, Vero cells, day 3
Procedure, shortened: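 Vero cells in MEM with 2% FCS were infected with DENV in the presence of compound and incubated for 3 days at 37° C. Lysates underwent RT and duplex qPCR for the viral 3′UTR and β-actin. EC50 came from ΔΔCp normalized to β-actin, and CC50 from the β-actin signal.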

[1] = Chiral stability at pH 7.4 (enantiomeric excess by Chiral SFC after incubation); format: physicochemical; details: 5 μM
Procedure: The chiral stability of Enantiomer 1A (R=OMe) was evaluated by determination of the enantiomeric excess (ee %) after incubation for 24 h and 48 h in a buffered solution at pH 7.4 at 40° C. and 60° C. To assess the influence of the methoxy-substituent of Enantiomer 1A (R=OMe) on the stability against racemization, the chiral stability of Enantiomer 1′A (R=H) was tested under the same conditions. To this end, 5 μM buffered (pH=7.4) solutions of 1A and 1′A were prepared by mixing 25 μL of a 100 μM solution of 1A or 1′A in DMSO with 475 μL aqueous buffer pH 7.4. Samples were taken 24 h and 48 h after incubation at 40° C. and 60° C. The analytical samples were analyzed by Chiral SFC (MS detection) and the chiral purity was expressed as the enantiomeric excess (ee %=% enantiomer A−% enantiomer B).

| Compound | EC50 (DENV-3 strain H87) | ee % ([1]; buffered solution pH 7.4, 40° C., 24 h) | ee % ([1]; buffered solution pH 7.4, 40° C., 48 h) | ee % ([1]; buffered solution pH 7.4, 60° C., 24 h) | ee % ([1]; buffered solution pH 7.4, 60° C., 48 h) |
| --- | --- | --- | --- | --- | --- |
| COc1cc(NC(C(=O)c2c[nH]c3c(C)c(OC)ccc23)c2ccc(Cl)cc2OC)cc(S(C)(=O)=O)c1 (single isomer, unassigned) [Compound 6A, 2-(4-chloro-2-methoxyphenyl)-2-((3-methoxy-5-(methyl-sulfonyl)phenyl)amino)-1-(6-methoxy-7-methyl-1H-indol-3-yl)ethanone] | 0.019 µM |  |  |  |  |
| COc1cc(NC(C(=O)c2c[nH]c3c(C)c(F)ccc23)c2ccc(Cl)cc2OC)cc(S(C)(=O)=O)c1 (single isomer, unassigned) [Compound 2A, 2-(4-chloro-2-methoxyphenyl)-1-(6-fluoro-7-methyl-1H-indol-3-yl)-2-((3-methoxy-5-(methylsulfonyl)phenyl)amino)ethanone] | 0.019 µM |  |  |  |  |
| COc1cc(NC(C(=O)c2c[nH]c3cc(OC)c(F)cc23)c2ccc(Cl)cc2OC)cc(S(C)(=O)=O)c1 (single isomer, unassigned) [Compound 5A, 2-(4-chloro-2-methoxyphenyl)-1-(5-fluoro-6-methoxy-1H-indol-3-yl)-2-((3-methoxy-5-(methylsulfonyl)phenyl)amino)ethanone] | 0.053 µM |  |  |  |  |
| COc1cc(NC(C(=O)c2c[nH]c3cc(OC)c(C)cc23)c2ccc(Cl)cc2OC)cc(S(C)(=O)=O)c1 (single isomer, unassigned) [Compound 4A, 2-(4-chloro-2-methoxyphenyl)-2-((3-methoxy-5-(methyl-sulfonyl)phenyl)amino)-1-(6-methoxy-5-methyl-1H-indol-3-yl)ethanone] | 0.015 µM |  |  |  |  |
| COc1cc(NC(C(=O)c2c[nH]c3cc(F)ccc23)c2ccc(Cl)cc2OC)cc(S(C)(=O)=O)c1 (single isomer, unassigned) [Compound 1A, 2-(4-chloro-2-methoxyphenyl)-1-(6-fluoro-1H-indol-3-yl)-2-((3-methoxy-5-(methylsulfonyl)phenyl)amino)ethanone] | 0.023 µM | 100% | 100% | 95% | 88% |
